According to patent US20260022142A1, “MACROCYCLIC IMMUNOMODULATORS” (Bristol-Myers Squibb Company, priority 2022, published 2026):
Bridge positions count the residues as written; N and C are the ends. Square brackets hold non-standard residues; d marks the D form. Peptide text beside a SMILES is read from it. * marks the point of attachment. ξ: configuration not given here. Phe(4-CH2CH2COOH) = N[C@@H](Cc1ccc(CCC(=O)O)cc1)C(=O)O; Phe(4-COOH) = N[C@@H](Cc1ccc(C(=O)O)cc1)C(=O)O; Bip = N[C@@H](Cc1ccc(-c2ccccc2)cc1)C(=O)O; Phe(3-Me) = Cc1cccc(C[C@H](N)C(=O)O)c1; NH(CH2)12COOH = O=C(O)CCCCCCCCCCCCN*; Val(3-OH) = CC(C)(O)[C@H](N)C(=O)O; hArg = N=C(N)NCCCC[C@H](N)C(=O)O; 4Pal = N[C@@H](Cc1ccncc1)C(=O)O; 2Thi = N[C@@H](Cc1cccs1)C(=O)O; Cha = N[C@@H](CC1CCCCC1)C(=O)O; Thr(3ξ) = CC(O)[C@H](N)C(=O)O; Carboxymethyl = O=C(O)C*; Orn = NCCC[C@H](N)C(=O)O; Aun = NCCCCCCCCCCC(=O)O; Dab = NCC[C@H](N)C(=O)O; Nva = CCC[C@H](N)C(=O)O; Dap = NC[C@H](N)C(=O)O; AEEA = NCCOCCOCC(=O)O

Biological target: T1, PD-1/PD-L1 interaction (PE-labeled human PD-L1-Ig binding to Jurkat cell line over-expressing human PD-1) (Homo sapiens, UniProt Q15116)
T1 construct: expressed in transfected cells; host or cells: Jurkat
T1 sequence (Q15116 25-288): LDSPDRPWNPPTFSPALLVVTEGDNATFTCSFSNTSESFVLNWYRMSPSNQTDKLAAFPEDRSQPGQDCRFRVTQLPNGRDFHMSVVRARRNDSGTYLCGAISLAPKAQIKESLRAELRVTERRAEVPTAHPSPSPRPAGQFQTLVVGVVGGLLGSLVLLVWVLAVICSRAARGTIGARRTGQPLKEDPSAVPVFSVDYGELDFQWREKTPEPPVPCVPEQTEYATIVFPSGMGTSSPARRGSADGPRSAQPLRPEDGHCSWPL
Assay: Jurkat-PD-1 Cell Binding High-Content Screening Assay (CBA)
Assay type: cell-based
Details: Jurkat cell line over-expressing human PD-1; PE-labeled PD-L1-Ig 20 nM final; read-out: Jurkat hPD1-PDL1 IC50
In short: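 Binding of fluorescent PD-L1-Ig (20 nM final) to Jurkat-PD-1 cells was measured by automated imaging after 1 h, following a 2 h compound pre-treatment at 37° C.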

Row | IC50 | SMILES
1 | 10.1 nM | CCC[C@@H]1NC(=O)CSC[C@@H](C(=O)N[C@@H](CCN)C(=O)NCCOCCOCC(=O)NCCCCCCCCCCCCC(=O)O)NC(=O)[C@H](CO)NC(=O)[C@H](C(C)(C)O)NC(=O)[C@H](CC2CCCCC2)NC(=O)[C@H](CCN)NC(=O)[C@@H](CC(C)C)NC(=O)[C@H](CCCN)NC(=O)[C@H](Cc2ccc(OCC(=O)O)cc2)NC(=O)[C@H](Cc2ccc(-c3ccccc3)cc2)NC(=O)[C@H](Cc2ccc(OCC(=O)O)cc2)NC(=O)[C@H](Cc2cccc(C)c2)NC(=O)[C@H](CC(=O)O)NC(=O)[C@H](Cc2ccc(C(=O)O)cc2)NC1=O [Compound 2254] ({CH2CO}-[Nva][Phe(4-COOH)]D[Phe(3-Me)]Y(Carboxymethyl)[Bip]Y(Carboxymethyl)[Orn][dL][Dab][Cha][Val(3-OH)]SC[Dab][AEEA]-{NH(CH2)12COOH}; thioether N-14)
2 | 88 nM | CC(C)C[C@@H]1NC(=O)[C@H](Cc2c[nH]c3ccccc23)NC(=O)[C@H](CC(=O)O)NC(=O)[C@H](Cc2ccc(OCC(=O)O)cc2)NC(=O)[C@H](CN)NC(=O)CSC[C@@H](C(=O)N[C@@H](CCN)C(=O)NCCCCCCCCCCC(=O)O)NC(=O)[C@H](CN)NC(=O)[C@H](C(C)O)NC(=O)[C@H](CC2CCCCC2)NC(=O)[C@H](CCN)NC(=O)[C@@H](CC(C)C)NC(=O)[C@H](CCCN)NC(=O)[C@H](Cc2ccc(O)cc2)NC(=O)[C@H](Cc2ccc(-c3ccccc3)cc2)NC1=O (stereo partly drawn) [Compound 3658] ({CH2CO}-[Dap]Y(Carboxymethyl)DWL[Bip]Y[Orn][dL][Dab][Cha][Thr(3ξ)][Dap]C[Dab][Aun]-OH; thioether N-14)
3 | 58.4 nM | CC(C)C[C@@H]1NC(=O)[C@H](Cc2c[nH]c3ccccc23)NC(=O)[C@H](CC(=O)O)NC(=O)[C@H](Cc2ccc(OCC(=O)O)cc2)NC(=O)[C@H](CN)NC(=O)CSC[C@@H](C(=O)NCCOCCOCC(=O)NCCCCCCCCCCC(=O)O)NC(=O)[C@H](Cc2cnc[nH]2)NC(=O)[C@H](C(C)O)NC(=O)[C@H](CC2CCCCC2)NC(=O)[C@H](CCN)NC(=O)[C@@H](CC(C)C)NC(=O)[C@H](CCCN)NC(=O)[C@H](C(C)C)NC(=O)[C@H](Cc2ccc(-c3ccccc3)cc2)NC1=O (stereo partly drawn) [Compound 3692] ({CH2CO}-[Dap]Y(Carboxymethyl)DWL[Bip]V[Orn][dL][Dab][Cha][Thr(3ξ)]HC[AEEA][Aun]-OH; thioether N-14)
4 | 23.2 nM | Cc1cccc(C[C@@H]2NC(=O)[C@H](CC(=O)O)NC(=O)[C@H](Cc3ccc(OCC(=O)O)cc3)NC(=O)[C@H]([C@@H](C)O)NC(=O)CSC[C@@H](C(=O)N[C@@H](CCN)C(=O)NCCCCCCCCCCC(=O)O)NC(=O)[C@H](CO)NC(=O)[C@H](C(C)C)NC(=O)[C@H](CC3CCCCC3)NC(=O)[C@H](CCN)NC(=O)[C@@H](CC(C)C)NC(=O)[C@H](CCCN)NC(=O)[C@H](Cc3ccc(OCC(=O)O)cc3)NC(=O)[C@H](Cc3ccc(-c4ccccc4)cc3)NC(=O)[C@H](Cc3ccc(O)cc3)NC2=O)c1 [Compound 2093] ({CH2CO}-TY(Carboxymethyl)D[Phe(3-Me)]Y[Bip]Y(Carboxymethyl)[Orn][dL][Dab][Cha]VSC[Dab][Aun]-OH; thioether N-14)
5 | 37.6 nM | CC(C)C[C@H]1NC(=O)[C@H](CCCN)NC(=O)[C@H](C(C)C)NC(=O)[C@H](Cc2ccc(-c3ccccc3)cc2)NC(=O)[C@H](C(C)C)NC(=O)[C@H](Cc2c[nH]c3ccccc23)NC(=O)[C@H](CC(=O)O)NC(=O)[C@H](Cc2ccc(OCC(=O)O)cc2)NC(=O)[C@H](CN)NC(=O)CSCC(C(=O)N[C@H](C)C(=O)NCCCCCCCCCCC(=O)O)NC(=O)[C@H]([C@@H](C)O)NC(=O)[C@H](C(C)C)NC(=O)[C@H](CC2CCCCC2)NC(=O)[C@H](Cc2cnc[nH]2)NC1=O (stereo partly shown) [Compound 1116]
6 | 29.8 nM | CC(C)C[C@H]1NC(=O)[C@H](CCCN)NC(=O)[C@H](C(C)C)NC(=O)[C@H](Cc2ccc(-c3ccccc3)cc2)NC(=O)[C@H](C(C)C)NC(=O)[C@H](Cc2c[nH]c3ccccc23)NC(=O)[C@H](CC(=O)O)NC(=O)[C@H](Cc2c[nH]cn2)NC(=O)[C@H](CCCNC(=N)N)NC(=O)CSC[C@@H](C(=O)N[C@@H](CCN)C(=O)NCCCCCCCCCCC(=O)O)NC(=O)[C@H](CO)NC(=O)[C@H](C(C)C)NC(=O)[C@H](CC2CCCCC2)NC(=O)[C@H](CCN)NC1=O [Compound 3272] ({CH2CO}-RHDWV[Bip]V[Orn][dL][Dab][Cha]VSC[Dab][Aun]-OH; thioether N-14)
7 | 16.6 nM | CC(=O)NCCCC[C@@H]1NC(=O)[C@H](Cc2ccc(-c3ccccc3)cc2)NC(=O)[C@H](Cc2ccc(O)cc2)NC(=O)[C@H](Cc2cccc(C)c2)NC(=O)[C@H](CC(=O)O)NC(=O)[C@H](Cc2ccc(OCC(=O)O)cc2)NC(=O)[C@H](CCCCNC(=N)N)NC(=O)CSC[C@@H](C(=O)N[C@@H](CCN)C(=O)NCCCCCCCCCCC(=O)O)NC(=O)[C@H](C(C)O)NC(=O)[C@H](C(C)C)NC(=O)[C@H](CC2CCCCC2)NC(=O)[C@H](CCN)NC(=O)[C@@H](CC(C)C)NC(=O)[C@H](CCCN)NC1=O (stereo partly drawn) [Compound 3505] ({CH2CO}-[hArg]Y(Carboxymethyl)D[Phe(3-Me)]Y[Bip]K(Ac)[Orn][dL][Dab][Cha]V[Thr(3ξ)]C[Dab][Aun]-OH; thioether N-14)
8 | 17.4 nM | CC(C)C[C@H]1NC(=O)[C@H](CCCN)NC(=O)[C@H](Cc2ccc(O)cc2)NC(=O)[C@H](Cc2ccc(-c3ccccc3)cc2)NC(=O)[C@H](Cc2ccc(O)cc2)NC(=O)[C@H](Cc2c[nH]c3ccccc23)NC(=O)[C@H](CC(=O)O)NC(=O)[C@H](Cc2ccc(OCC(=O)O)cc2)NC(=O)[C@H]([C@@H](C)O)NC(=O)CSC[C@@H](C(=O)N[C@@H](CCN)C(=O)NCCCCCCCCCCC(=O)O)NC(=O)[C@H]([C@@H](C)O)NC(=O)[C@H](C(C)C)NC(=O)[C@H](CC2CCCCC2)NC(=O)[C@H](CCN)NC1=O [Compound 2728] ({CH2CO}-TY(Carboxymethyl)DWY[Bip]Y[Orn][dL][Dab][Cha]VTC[Dab][Aun]-OH; thioether N-14)
9 | 23 nM | CC(C)C[C@H]1NC(=O)[C@H](CCCN)NC(=O)[C@H](C(C)C)NC(=O)[C@H](Cc2ccc(-c3ccccc3)cc2)NC(=O)[C@H](C(C)C)NC(=O)[C@H](Cc2c[nH]c3ccccc23)NC(=O)[C@H](CC(=O)O)NC(=O)[C@H](Cc2ccc(OCC(=O)O)cc2)NC(=O)[C@H](CN)NC(=O)CSC[C@@H](C(=O)NCCOCCOCC(=O)N[C@@H](CC(=O)O)C(=O)NCCCCCCCCCCC(=O)O)NC(=O)[C@H]([C@@H](C)O)NC(=O)[C@H](C(C)C)NC(=O)[C@H](CC2CCCCC2)NC(=O)[C@H](Cc2cnc[nH]2)NC1=O [Compound 1105] ({CH2CO}-[Dap]Y(Carboxymethyl)DWV[Bip]V[Orn][dL]H[Cha]VTC[AEEA]D[Aun]-OH; thioether N-14)
10 | 0.6 nM | COc1ccc(C[C@@H]2NC(=O)[C@H](Cc3cccc(C)c3)NC(=O)[C@H](CC(=O)O)NC(=O)[C@H](Cc3ccc(OCC(=O)O)cc3)NC(=O)[C@H](Cc3ccncc3)NC(=O)CSC[C@@H](C(=O)N[C@@H](CCN)C(=O)NCCCCCCCCCCC(=O)O)NC(=O)[C@H](CO)NC(=O)[C@H](C(C)(C)O)NC(=O)[C@H](CC3CCCCC3)NC(=O)[C@H](CCN)NC(=O)[C@@H](CC(C)C)NC(=O)[C@H](CCCN)NC(=O)[C@H](Cc3ccc(OCC(=O)O)cc3)NC(=O)[C@H](Cc3ccc(-c4ccccc4)cc3)NC2=O)cc1 [Compound 2229] ({CH2CO}-[4Pal]Y(Carboxymethyl)D[Phe(3-Me)]Y(Me)[Bip]Y(Carboxymethyl)[Orn][dL][Dab][Cha][Val(3-OH)]SC[Dab][Aun]-OH; thioether N-14)
11 | 15.6 nM | Cc1cccc(C[C@@H]2NC(=O)[C@H](CC(=O)O)NC(=O)[C@H](Cc3ccc(OCC(=O)O)cc3)NC(=O)[C@H](Cc3cccs3)NC(=O)CSC[C@@H](C(=O)N[C@@H](CCN)C(=O)NCCCCCCCCCCC(=O)O)NC(=O)[C@H](CO)NC(=O)[C@H](C(C)(C)O)NC(=O)[C@H](CC3CCCCC3)NC(=O)[C@H](CCN)NC(=O)[C@@H](CC(C)C)NC(=O)[C@H](CCCN)NC(=O)[C@H](Cc3ccc(OCC(=O)O)cc3)NC(=O)[C@H](Cc3ccc(-c4ccccc4)cc3)NC(=O)[C@H](Cc3ccc(OCC(=O)O)cc3)NC2=O)c1 [Compound 2182] ({CH2CO}-[2Thi]Y(Carboxymethyl)D[Phe(3-Me)]Y(Carboxymethyl)[Bip]Y(Carboxymethyl)[Orn][dL][Dab][Cha][Val(3-OH)]SC[Dab][Aun]-OH; thioether N-14)
12 | 6.7 nM | CC(C)C[C@H]1NC(=O)[C@H](CCCN)NC(=O)[C@H](C(C)C)NC(=O)[C@H](Cc2ccc(-c3ccccc3)cc2)NC(=O)[C@H](C(C)C)NC(=O)[C@H](Cc2c[nH]c3ccccc23)NC(=O)[C@H](CC(=O)O)NC(=O)[C@H](Cc2ccc(OCC(=O)O)cc2)NC(=O)[C@H](CCCCNC(=N)N)NC(=O)CSC[C@@H](C(=O)NCCOCCOCC(=O)NCCCCCCCCCCC(=O)O)NC(=O)[C@H](CCCN)NC(=O)[C@H](C(C)C)NC(=O)[C@H](CC2CCCCC2)NC(=O)[C@H](CCN)NC1=O [Compound 3262] ({CH2CO}-[hArg]Y(Carboxymethyl)DWV[Bip]V[Orn][dL][Dab][Cha]V[Orn]C[AEEA][Aun]-OH; thioether N-14)
13 | 5.8 nM | Cc1cccc(C[C@@H]2NC(=O)[C@H](CC(=O)O)NC(=O)[C@H](Cc3ccc(OCC(=O)O)cc3)NC(=O)[C@H](CCCNC(=N)N)NC(=O)CSC[C@@H](C(=O)N[C@@H](CCN)C(=O)NCCCCCCCCCCC(=O)O)NC(=O)[C@H](CCC(N)=O)NC(=O)[C@H](C(C)C)NC(=O)[C@H](CC3CCCCC3)NC(=O)[C@H](CCN)NC(=O)[C@@H](CC(C)C)NC(=O)[C@H](CCCN)NC(=O)[C@H](Cc3ccc(O)cc3)NC(=O)[C@H](Cc3ccc(-c4ccccc4)cc3)NC(=O)[C@H](Cc3ccc(CCC(=O)O)cc3)NC2=O)c1 [Compound 2131] ({CH2CO}-RY(Carboxymethyl)D[Phe(3-Me)][Phe(4-CH2CH2COOH)][Bip]Y[Orn][dL][Dab][Cha]VQC[Dab][Aun]-OH; thioether N-14)
